The record followed here is the METLIN SMRT retention time set (Domingo-Almenara et al. 2019).

This data set can be described thus: gradient 5% acetonitrile 3 min, to 50% in 2 min, to 85% in 15 min, held 3 min, 100 µL/min. The conditions noted are these: column: Zorbax Extend-C18 2.1 x 50 mm; eluents: water / acetonitrile, 0.1% formic acid. In a few lines: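 Retention times of pure standards were taken from adduct peaks that were selected by computer and manually inspected. Over 3 months, mixtures of ~100 molecules were run by HPLC–quadrupole time-of-flight mass spectrometry in positive and negative ionization mode. The Zorbax Extend-C18 column (2.1 × 50 mm, 1.8 μm) ran at 100 μL/min in water and acetonitrile, each containing 0.1% formic acid, with 40 μL dead volume and 900 μL dwell volume.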
Compound `COc1ccc(N2CCN(c3ncc4c(n3)CCN(Cc3ccc(C)cc3)C4)CC2)cc1` yielded an RP-LC retention time of 675 s.
To `COc1cc(NCc2ccccc2O)c2ncccc2c1` belongs 758 s.
Take `CN(Cc1ccccc1)C(=O)CCSC1CCc2ccccc2NC1=O` (stereo not given): the RP-LC retention time is 798 s.
The compound `COc1ccc(OC)c(NC(=O)Cn2c(N3CCCC3)nc(C)cc2=O)c1` showed an RP-LC retention time of 654 s.
To `O=C1COc2ccc(Cl)cc2N1Cc1nc(-c2ccc(F)cc2)no1` belongs 1070 s; to `Cc1ccc(-c2noc(-c3sccc3NC(=O)C3(c4ccccc4)CC3)n2)cc1`, 828 s.
With `O=C(NCCCN1CCCC1)C1CCc2sc(C(=O)N3CCOCC3)cc2C1` (stereo not given) the figure was 566 s; with `CCn1ccc(C(=O)Nc2ccc3c(c2)Sc2ncccc2C(=O)N3C(C)C)n1`, 790 s.
To `COc1ccc(CNC(=O)C2(C)Oc3cccnc3N(C(C)C)C2=O)cc1OC` (stereo not given) belongs 836 s.
The compound `CCNC(=O)NC1CCN(c2ccc(C)c(C)c2)C1=O` (stereo not given) had an RP-LC retention time of 690 s.
To `Cc1ccc(CC(=O)NC2CCN(c3cc(-c4ccc(Cl)cc4)[nH]n3)C2)cc1` (stereo not given) belongs 807 s; to `CCCc1ccc(S(=O)(=O)N2CCC(C(=O)NCc3csc(-c4ccccc4)n3)CC2)cc1`, 1090 s.
Take `O=C1CCCc2cc(S(=O)(=O)N3CCN(c4cccc(C(F)(F)F)c4)CC3)ccc2N1`: the RP-LC retention time was found to be 980 s.
In the case of `O=S(=O)(c1ccc(C2CCCCC2)cc1)N1CCOCC1`, the RP-LC retention time was 1050 s.
To `Cc1cccc(C(C)c2cnc[nH]2)c1C` (stereo not given) belongs 689 s.
For `CCC(=O)N1CCC2(CC1)NCc1ccccc1-n1ccnc12`, the RP-LC retention time amounted to 562 s.
Turning to `CCCn1cnc2ccc(-c3noc(-c4cccc(OC)c4)n3)cc21`, the RP-LC retention time stood at 728 s.
With `COc1cccc(C(=O)N2CCCC(c3nnc(-c4ccccc4)o3)C2)c1` (stereo not given), the RP-LC retention time stood at 822 s.
For `CCOC(=O)c1cccc(NC(=O)C2CCCN(C(=O)C3Sc4ccccc4NC3=O)C2)c1` (stereo not given), the RP-LC retention time is 851 s.
Turning to `COC(=O)c1cc2ccsc2n1Cc1ccccc1C#N`, the RP-LC retention time turned out to be 1030 s.
To `Cc1ccc(-c2noc(Cn3ccnc3)n2)cc1` belongs 624 s; to `CCN(CC)CCNC(=O)c1c(C)oc2c1C(=O)c1ccccc1C2=O`, 635 s; to `Cc1ccc(CCC(=O)Nc2c(C)cccc2C(=O)O)o1`, 726 s.
As to `Cc1nn(CC(=O)NCCN(C)C)c(=O)c2nc(-c3ccccc3)sc12`, the RP-LC retention time is 601 s.
For the compound `O=c1n(Cc2ccccc2)nc2ccc(S(=O)(=O)N3CCCC3)cn12`, the RP-LC retention time was 675 s.
To `COc1cccc(-c2nc(CS(=O)(=O)CC(=O)N3CCN(c4ccccn4)CC3)c(C)o2)c1` belongs 631 s; to `CCC(=O)Nc1ccc(CCc2nc3ccc(C(=O)NC4CCCC4)cc3[nH]2)cc1`, 625 s.
To `O=C1OCC2=C1C(c1ccccc1)NC(=O)N2CC(=O)N1CCCCC1` (stereo not given) belongs 672 s.
The compound `CC(C)CCNC(=O)C1CCN(c2cncnc2N2CCN(C)CC2)CC1` yielded an RP-LC retention time of 561 s.
To `CCCNC(=O)CCNc1c(-c2ccc(C)cc2)nc2cnccn12` belongs 654 s.
For the compound `COc1ccc2c(c1)C1(CCN(S(=O)(=O)c3ccc(F)cc3)C1)C(=O)N2` (stereo not given), the RP-LC retention time was determined as 820 s.
With `Cc1nc(-c2csc(S(=O)(=O)N3CCC(C(=O)Nc4ccc(C(C)C)cc4)CC3)c2)no1` the figure was 1090 s; with `CCN1c2ccccc2C(=O)NC12CCN(C(=O)c1cccc(OC)c1)CC2`, 752 s; with `Cc1ccc(Cn2nc(-c3nc(C(C)(C)C)no3)ccc2=O)cc1`, 1130 s.
On to `O=S(=O)(c1cccc(-c2nc(-c3ccccc3)no2)c1)N1CCN(C2CCCCC2)CC1`, for which the RP-LC retention time was 840 s.
To `Cc1nn(-c2ccc(N3CCCC3)nn2)c(C)c1CCC(=O)N1CCN(c2ccccn2)CC1` belongs 546 s.
For the compound `O=C(Nc1ccc(Cl)c(C(F)(F)F)c1)C(=O)c1ccc[nH]1`, the RP-LC retention time was 1050 s.
Compound `Cc1nc(C2CCCN2Cc2ccc(C)s2)n[nH]1` (stereo not given) returned an RP-LC retention time of 554 s.
Compound `Cc1nc2cc3c(cc2n1CC(=O)NCc1ccc(Cl)cc1)OCCO3` displayed an RP-LC retention time of 652 s.
With `CCC(C)NC(=O)Cn1nc(Cc2ccncc2)c2ccccc2c1=O` (stereo not given) the figure was 572 s; with `O=C(Nc1ccc(Cl)cc1F)C1CCc2nc(N3CCOCC3)ncc2C1` (stereo not given), 856 s.
To `CCc1nc2ccccc2c(C(=O)NC2CCCCC2)c1C` belongs 650 s; to `Cc1cccn2cc(-c3cccc(NS(=O)(=O)c4ccc(Br)cc4)c3)nc12`, 700 s; to `COC(=O)c1ccc2c(=O)n(-c3ccc(Cl)cc3)c(N3CCN(C)CC3)nc2c1`, 670 s.
Take `CC(C)c1cccc(Nc2nc3ccncc3n(C(C)C)c2=O)c1`: the RP-LC retention time was 707 s.
`COC(=O)C(NC(=O)N1CCCn2nc(-c3ccncc3)cc2C1)c1ccccc1` (stereo not given): the RP-LC retention time turned out to be 606 s.
As to `COc1ccc(-c2nc(C)cc3nn(CC(=O)Nc4cccc(OC)c4)c(=O)n23)cc1`, the RP-LC retention time stood at 800 s.
The compound `CCc1nc2c(c(=O)n1CC(=O)NCc1ccc(C)c(C)c1)CN(Cc1ccccc1)CC2` displayed an RP-LC retention time of 694 s.
To `COc1ccc(CNC(=O)NCC2(CO)CC2)cc1OC` belongs 590 s; to `COc1ccc2c(c1)C=C(C(=O)NCc1ccccc1)C=CO2`, 940 s; to `COc1ccc(C2(C(=O)N3CC(F)(F)C[C@H]3CN3CCN(C)CC3)CC2)cc1`, 641 s.
With `COc1ccc(CCNC(=O)C2CCN(S(=O)(=O)c3cn(C(C)C)cn3)CC2)cc1OC` the figure was 689 s; with `CCc1ccc(NC(=O)N2CCC(CC(=O)N3CCCCC3)CC2)cc1`, 833 s; with `CC(C)Sc1ccc(CC(=O)NCc2ccsc2)cc1`, 908 s.
`Cc1noc(C)c1CNC(=O)Cc1ccccc1F` had an RP-LC retention time of 696 s.
`Cc1cc(C)n(CC2CCN(C(=O)c3cc4ccccc4[nH]3)CC2)n1` returned an RP-LC retention time of 717 s.
`CC(C)C(=O)NCCc1csc(C2CCCN(C(=O)C3CCCO3)C2)n1` (stereo not given) gave an RP-LC retention time of 622 s.
With `Fc1ccc(-n2cc(-c3noc(-c4cccc(F)c4)n3)nn2)cc1`, the RP-LC retention time amounted to 1050 s.
To `CCC1=C[C@@H]2CN3CCc4c([nH]c5ccccc45)[C@@](C(=O)OC)(C2)[C@@H]13` belongs 728 s.
Regarding `Cc1nn(-c2ccc(F)cc2)c(C)c1S(=O)(=O)N1CCC(C(=O)NCc2cccs2)CC1`, the RP-LC retention time stood at 861 s.
For the compound `CC1=C(c2ccc(F)cc2)S(=O)(=O)N=C1N1CCCN(C(=O)NC2CCCCC2)CC1`, the RP-LC retention time was found to be 845 s.
To `CN1C(=O)c2cc(C(=O)N3CCN(c4ccccc4F)CC3)nn2CC1(C)C(=O)NC1CCCC1` (stereo not given) belongs 801 s; to `CCCCN(CCNc1ncnc2onc(-c3ccccc3OC)c12)Cc1ccco1`, 726 s; to `Cc1ccc(CNC(=O)C2(C)CCCN(C(=O)Nc3ccccc3Cl)C2)cc1` (stereo not given), 995 s.
The compound `O=C1[C@H]2CN(Cc3cccc(Cl)c3)C[C@H]2C(=O)N1CCN1CCc2ccccc2C1` gave an RP-LC retention time of 659 s.
Compound `CCc1ccc(S(=O)(=O)N2CCC3(CC2)NCCN=C3NCc2cccc(F)c2)cc1` registered an RP-LC retention time of 772 s.
Consider `CN(C)C(=O)c1cc2c(s1)CCC(C(=O)N1CCOCC1)C2` (stereo not given), for which the RP-LC retention time is 781 s.
Take `CC1CCCN(CC2CCN(S(=O)(=O)CCc3ccccc3)CC2)C1` (stereo not given): the RP-LC retention time came out at 677 s.
To `O=C(CN1c2ccc(F)cc2-c2ccccc2S1(=O)=O)Nc1ccc(F)c(F)c1` belongs 974 s; to `Cc1cc(N2CCCC2)nc(N2CCN(S(=O)(=O)c3ccc4c(c3)Cc3ccccc3-4)CC2)n1`, 924 s; to `COc1cc(NC(=O)NC(C)C(=O)N2CCc3ccccc32)cc(OC)c1` (stereo not given), 817 s.
With `CCOc1nc2ccccc2nc1N1CCCC(C(=O)Nc2ccc(NC(C)=O)cc2)C1` (stereo not given) the figure was 908 s; with `COc1ccc(-c2noc(C3CCCN3C(=O)Nc3ccccc3C(F)(F)F)n2)cc1` (stereo not given), 1010 s; with `Cc1onc(-c2ccccn2)c1C(=O)NCCCN1CCN(C2CCCCC2)CC1`, 582 s.
The compound `Cc1cccc(NC(=O)CN2c3ccccc3NC3=C(C(=O)CCC3)C2c2ccco2)c1C` (stereo not given) had an RP-LC retention time of 851 s.
With `O=C(Nc1cccnc1)C1CCCN(c2ncnc3c2nc2n3CCCCC2)C1` (stereo not given) the figure was 603 s; with `CCc1nc(-c2csc(S(=O)(=O)N3CCCC(C(=O)Nc4cccc(F)c4)C3)c2)no1` (stereo not given), 1070 s.
With `O=S(=O)(c1ccc(-c2cc(C(F)(F)F)on2)s1)N1CCN(c2ccccn2)CC1` the figure was 883 s.
To `CCCCn1nc2ccc(S(=O)(=O)N3CCC(C)CC3)cn2c1=O` belongs 970 s.
Compound `O=C1CCC2(CNC(=O)c3cnccn3)CCCC=C2N1` (stereo not given) came in with an RP-LC retention time of 623 s.
